Data from patent US20160209435A1, “Acetaminophen as a Marker of Hepatic Disorders” (THE ARIZONA BOARD OF REGENTS, on behalf of THE UNIVERSITY …, priority 2008, published 2016).
Like-named read-outs stand apart in the source and are kept apart here. Each block holds one molecule with its values, some of them ahead of it.

Columns and labels:
[1] = APAP-GLUC concentration in plasma of pediatric patients after APAP administration (HPLC); type: in vivo, human; conditions: for concentration at 1 h / concentration at 2 h / concentration at 4 h / concentration at 3 h: human, plasma; for concentration at 1 h: 1 h after APAP; for concentration at 2 h: 2 h after APAP; for concentration at 4 h: 4 h after APAP; for concentration at 3 h: 3 h after APAP
Method: (§1) A study was conducted in pediatric patients whose disease status had been biopsy verified. Twenty-four pediatric patients (12-18 yrs) were desirable for the preliminary study due to the presumed lack of confounding factors (e.g., alcoholic consumption, illicit drug use) and the increasing prevalence of childhood obesity. Conversely, pediatric patients are limited in the amount of real liver damage that can take place simply due to age, where pediatric patients are incapable of developing ballooning degeneration and are limited to fat deposition, inflammation, and fibrosis.
High Performance Liquid Chromatography Analysis. APAP and its metabolites in plasma, and urine samples were quantified by high performance liquid chromatography analysis based on previously described methods (Howie et al., 1977a; Chen et al., 2000; Slitt et al., 2003d). APAP and its metabolites were resolved using a Zorbmax™ SB-C18 reverse-phase 4.6-mm×25-cm column with a Phenomenex™ Security Guard Column Guard and eluted using a mobile phase composed of 12.5% HPLC-grade methanol, 1% acetic acid, and 86.5% water, run isocratically at a flow rate of 1.2 mL/minute. The elution of metabolites was monitored at a wavelength of 254 nm. Retention times of APAP and its metabolites were determined by comparison with that of authentic standards. […] Samples were analyzed using a Beckman System Gold HPLC system (Beckman Coulter, Inc., Fullerton, Calif.) equipped with a 128-nm solvent module and a 166-nm detector. Quantitation was based on integrated peak areas. The concentrations of APAP and its metabolites were calculated using an APAP standard curve since the molar extinction coefficients of APAP and its conjugated metabolites are approximately the same (Howie et al., 1977b). To precipitate proteins in plasma, and urine, samples were diluted 1:2, 1:2, and 1:3, respectively, with ice-cold methanol and centrifuged at 4,000×g for 30 minutes at 4° C. The resulting supernatants were collected and diluted in mobile phase 1:3 (urine) or 1:2 (plasma) prior to HPLC analysis.
Liver fibrosis was histologically characterized as mild (minimal scarring around blood vessels), moderate (scarring extending out from the liver blood vessels), or severe (scarring forming bridges between blood vessels).
Liver inflammation was histologically characterized as mild (less than 2 foci of inflammation), moderate (2-4 foci of inflammation), or severe (more than 4 foci of inflammation).

[2] = APAP-GLUC concentration in urine after APAP administration (HPLC); type: in vivo, human; conditions: normal volunteers, steatosis, steatohepatitis
Method: as §1
High Performance Liquid Chromatography Analysis. APAP and its metabolites in plasma, and urine samples were quantified by high performance liquid chromatography analysis based on previously described methods (Howie et al., 1977a; Chen et al., 2000; Slitt et al., 2003d). […] The elution of metabolites was monitored at a wavelength of 254 nm. Retention times of APAP and its metabolites were determined by comparison with that of authentic standards. […] Samples were analyzed using a Beckman System Gold HPLC system (Beckman Coulter, Inc., Fullerton, Calif.) equipped with a 128-nm solvent module and a 166-nm detector. Quantitation was based on integrated peak areas. […]

[3] = MCD rats, APAP 1 mmol/kg; cited from earlier work
[4] = cited from earlier work
[5] = NASH, read-out: Mean plasma concentration
[6] = NASH, read-out: Median plasma concentration
[7] = Normal, read-out: Mean plasma concentration
[8] = Normal, read-out: Median plasma concentration
[9] = Steatosis, read-out: Mean plasma concentration
[10] = Steatosis, read-out: Median plasma concentration

Plasma concentration, steatohepatitis versus simple steatosis ([1]; all time points measured): significantly higher
concentration at 1 h [1, 5]: 60.7 µM
concentration at 1 h [1, 6]: 75.9 µM
concentration at 2 h [1, 5]: 72.7 µM
concentration at 2 h [1, 6]: 66.4 µM
concentration at 4 h [1, 5]: 68.3 µM
concentration at 4 h [1, 6]: 62.6 µM
concentration at 1 h [1, 7]: 29.9 µM
concentration at 1 h [1, 8]: 29 µM
concentration at 2 h [1, 7]: 54.3 µM
concentration at 2 h [1, 8]: 48.9 µM
concentration at 3 h [1, 7]: 46.7 µM
concentration at 3 h [1, 8]: 39.2 µM
concentration at 1 h [1, 9]: 30.5 µM
concentration at 1 h [1, 10]: 32.6 µM
concentration at 2 h [1, 9]: 44.3 µM
concentration at 2 h [1, 10]: 41.1 µM
concentration at 4 h [1, 9]: 35.5 µM
concentration at 4 h [1, 10]: 35.3 µM
Plasma levels, hepatic fibrosis versus no hepatic fibrosis ([1]; pediatric patients): Higher
Plasma levels, hepatic inflammation versus no hepatic inflammation ([1]; pediatric patients): Higher
SMILES: CC(=O)Nc1ccc(O[C@@H]2O[C@H](C(=O)O)[C@@H](O)[C@H](O)[C@H]2O)cc1 [APAP-GLUC, acetaminophen (APAP)-glucuronide]
Urine levels, NASH versus other groups [2]: not significantly different between patients with NASH and other groups until four hours
route of excretion relative to control [3]: shift from biliary to plasma excretion

SMILES: CC(=O)Nc1ccc(O)cc1 [Acetaminophen]
plasma half-life ([4]; first-order elimination): 2.0 to 2.4 h
fraction of administered dose conjugated with glucuronic acid ([4]; in vivo): At least one-half
fraction of administered dose conjugated with sulfate ([4]; in vivo): one-third
fraction metabolized by CYP-450-dependent mixed-function oxidase pathway ([4]; primarily via CYP2E1): 5-9%
dose excreted unchanged by the kidneys ([4]; recommended dose): Less than 5%
